Assay results taken from patent publication US11612595B2, “Compositions and methods for treating rheumatoid arthritis” (Generos Biopharma Ltd., priority 2017, dated 2023).

Experiments:
[1] = system: collagen-induced arthritis (CIA) model mice; experiment: collagen-induced arthritis (CIA) model mice, clinical scores; assay type: in vivo, DBA/1J mice; parameters: key to Pairwise analysis of the difference between groups (clinical scores), vs Model / Pairwise analysis of the difference between groups (clinical scores), S5i 5 mpk vs S5i 10 mpk: p values from pairwise comparisons
Text: FIGS. 8A and 8B show graphs depicting clinical score changes in four groups of CIA mouse models under different treatment schemes. In FIG. 8A, different chemicals (DMSO as control for Model group, blank group is left untreated) were daily administered intraperitoneally at the indicated doses from the first injection of the collagen agent. In FIG. 8B, different chemicals were daily administered intraperitoneally from the second injection of collagen agent at the indicated doses. Clinical scores were given double-blindly according to the scoring scheme every 2 days.
FIGS. 9A and 9B show graphs of clinical scores at day 44 for each group, the overall difference analyzed by ANOVA is significant p<0.0001, while the p value between Model and each individual group is labeled above the bar * p<0.05, ** p<0.01.
Eight of nine groups (10 mice in each group) of male DBA/1J mice (age 9-10 weeks. H-2q haplotype) were subject to CIA model induction and then to different treatment schemes. The group of mice without CIA model induction was used as a control (Blank). Specifically, Bovine type II collagen (Chondrex) was mixed with Freund's complete adjuvant (CFA) (Sigma) and injected s.c. to flank near tail of the mice twice (the second injection was made 21 days after the first injection) to create CIA model mice. The eight groups of CIA model mice were separated into four prophylactic groups and four therapeutic groups, with each group subjected to different treatments.
In the four prophylactic groups, daily treatments started from the date when the first CIA induction injection was made. The first of the four prophylactic groups of CIA model mice were treated with 30% PEG300 (containing 4% DMSO-all 30% PEG300 in the application contains 4% DMSO) solution via intraperitoneal injection as controls (Model). The second of the four prophylactic groups of CIA model mice were treated with nicotinohydrazide (Calbiochem) 10 mg/kg in 30% PEG300 solution via intraperitoneal injection (573108 10 mg/kg). The third of the four prophylactic groups of CIA model mice were treated with nicotinohydrazide (Calbiochem) 5 mg/kg in 30% PEG300 solution via intraperitoneal injection (573108 5 mg/kg). The last of the four prophylactic groups of CIA model mice were treated with Tofacitinib (Selleckchem) 5 mg/kg in 30% PEG300 solution via intraperitoneal injection (Tofacitinib 5 mg/kg).
In the four therapeutic groups, daily treatments started from the date when the second CIA induction injection was made. The first of the four therapeutic groups of CIA model mice were treated with 30% PEG300 solution via intraperitoneal injection as controls (Model). The second of the four therapeutic groups of CIA model mice were treated with nicotinohydrazide (Calbiochem) 10 mg/kg in 30% PEG300 solution via intraperitoncal injection (573108 10 mg/kg). The third of the four therapeutic groups of CIA model mice were treated with nicotinohydrazide (Calbiochem) 5 mg/kg in 30% PEG300 solution via intraperitoneal injection (573108 5 mg/kg). The last of the four therapeutic groups of CIA model mice were treated with Tofacitinib (Selleckchem) 5 mg/kg in 30% PEG300 solution via intraperitoncal injection (Tofacitinib 5 mg/kg).
The inventors collected data of the weight, and clinical scores of the mice every 2-3 days and performed statistic analysis. The method used in the statistic analysis was Student's t test, unpaired, two-tailed analysis.
The clinical scores were derived according to the scheme in Table 2.

[2] = target: STAT3 (Homo sapiens, UniProt P40763); settings: Daudi cells; cited from earlier work
Sequence of STAT3 (P40763 whole entry): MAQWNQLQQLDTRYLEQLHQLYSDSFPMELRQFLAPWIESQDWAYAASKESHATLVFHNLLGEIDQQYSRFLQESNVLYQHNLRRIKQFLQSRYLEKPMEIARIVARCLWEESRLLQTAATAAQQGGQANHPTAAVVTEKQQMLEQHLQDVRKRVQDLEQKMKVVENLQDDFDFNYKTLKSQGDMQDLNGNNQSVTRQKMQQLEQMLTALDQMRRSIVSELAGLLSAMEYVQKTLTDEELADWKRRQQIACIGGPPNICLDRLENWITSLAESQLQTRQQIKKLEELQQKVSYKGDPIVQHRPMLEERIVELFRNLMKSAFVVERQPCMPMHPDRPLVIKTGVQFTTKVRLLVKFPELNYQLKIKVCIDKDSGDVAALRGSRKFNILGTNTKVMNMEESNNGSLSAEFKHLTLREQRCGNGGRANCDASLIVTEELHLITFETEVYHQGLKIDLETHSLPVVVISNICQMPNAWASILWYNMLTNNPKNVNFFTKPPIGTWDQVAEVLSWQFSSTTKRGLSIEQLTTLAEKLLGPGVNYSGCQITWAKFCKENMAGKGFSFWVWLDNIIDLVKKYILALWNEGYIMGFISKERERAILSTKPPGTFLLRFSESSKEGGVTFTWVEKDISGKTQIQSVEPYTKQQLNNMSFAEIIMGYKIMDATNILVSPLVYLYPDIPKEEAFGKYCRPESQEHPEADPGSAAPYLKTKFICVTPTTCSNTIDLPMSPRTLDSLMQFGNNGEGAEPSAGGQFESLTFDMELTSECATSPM

For `O=C(N/N=C/c1coc2ccccc2c1=O)c1cccnc1` [nicotinohydrazide, N′-((4-Oxo-4H-chromen-3-yl)methylene)nicotinohydrazide], the “clinical scores compared to Model” value ([1]; prophylactic groups, 5 mg/kg i.p. daily) was “reduced clinical scores”, the “clinical scores compared to Model” value ([1]; prophylactic groups, 10 mg/kg i.p. daily) was “reduced clinical scores” and the “Pairwise analysis of the difference between groups (clinical scores), vs Model” value ([1]; prophylactic groups, 5 mpk, Day 28) was 0.1019. For the same compound, the “Pairwise analysis of the difference between groups (clinical scores), vs Model” value ([1]; prophylactic groups, 5 mpk, Day 30) was 0.0410, the “Pairwise analysis of the difference between groups (clinical scores), vs Model” value ([1]; prophylactic groups, 5 mpk, Day 32) was 0.0740 and the “Pairwise analysis of the difference between groups (clinical scores), vs Model” value ([1]; prophylactic groups, 5 mpk, Day 35) was 0.0615. The “Pairwise analysis of the difference between groups (clinical scores), vs Model” value ([1]; prophylactic groups, 5 mpk, Day 37) was 0.1101, the “Pairwise analysis of the difference between groups (clinical scores), vs Model” value ([1]; prophylactic groups, 5 mpk, Day 39) was 0.0010 and the “Pairwise analysis of the difference between groups (clinical scores), vs Model” value ([1]; prophylactic groups, 5 mpk, Day 42) was 0.0185. The “Pairwise analysis of the difference between groups (clinical scores), vs Model” value ([1]; prophylactic groups, 5 mpk, Day 44) was 0.2729, the “Pairwise analysis of the difference between groups (clinical scores), vs Model” value ([1]; prophylactic groups, 10 mpk, Day 28) was 0.1491 and the “Pairwise analysis of the difference between groups (clinical scores), vs Model” value ([1]; prophylactic groups, 10 mpk, Day 30) was 0.1452. For the same compound, the “Pairwise analysis of the difference between groups (clinical scores), vs Model” value ([1]; prophylactic groups, 10 mpk, Day 32) was 0.1256, the “Pairwise analysis of the difference between groups (clinical scores), vs Model” value ([1]; prophylactic groups, 10 mpk, Day 35) was 0.0354 and the “Pairwise analysis of the difference between groups (clinical scores), vs Model” value ([1]; prophylactic groups, 10 mpk, Day 37) was 0.0614. The “Pairwise analysis of the difference between groups (clinical scores), vs Model” value ([1]; prophylactic groups, 10 mpk, Day 39) was 0.0008, the “Pairwise analysis of the difference between groups (clinical scores), vs Model” value ([1]; prophylactic groups, 10 mpk, Day 42) was 0.0033 and the “Pairwise analysis of the difference between groups (clinical scores), vs Model” value ([1]; prophylactic groups, 10 mpk, Day 44) was 0.0128. For the same compound, the “Pairwise analysis of the difference between groups (clinical scores), S5i 5 mpk vs S5i 10 mpk” value ([1]; prophylactic groups, Day 28) was 0.7387, the “Pairwise analysis of the difference between groups (clinical scores), S5i 5 mpk vs S5i 10 mpk” value ([1]; prophylactic groups, Day 30) was 0.5943 and the “Pairwise analysis of the difference between groups (clinical scores), S5i 5 mpk vs S5i 10 mpk” value ([1]; prophylactic groups, Day 32) was 0.8722. For the same compound, the “Pairwise analysis of the difference between groups (clinical scores), S5i 5 mpk vs S5i 10 mpk” value ([1]; prophylactic groups, Day 35) was 0.7717, the “Pairwise analysis of the difference between groups (clinical scores), S5i 5 mpk vs S5i 10 mpk” value ([1]; prophylactic groups, Day 37) was 0.8686 and the “Pairwise analysis of the difference between groups (clinical scores), S5i 5 mpk vs S5i 10 mpk” value ([1]; prophylactic groups, Day 39) was 0.9741. The “Pairwise analysis of the difference between groups (clinical scores), S5i 5 mpk vs S5i 10 mpk” value ([1]; prophylactic groups, Day 42) was 0.1588, the “Pairwise analysis of the difference between groups (clinical scores), S5i 5 mpk vs S5i 10 mpk” value ([1]; prophylactic groups, Day 44) was 0.0717 and the “clinical scores compared to Model” value ([1]; therapeutic groups, 5 mg/kg i.p. daily) was “reduced clinical scores”. For the same compound, the “clinical scores compared to Model” value ([1]; therapeutic groups, 10 mg/kg i.p. daily) was “reduced clinical scores”, the “Pairwise analysis of the difference between groups (clinical scores), vs Model” value ([1]; therapeutic groups, 5 mpk, Day 28) was 0.0117 and the “Pairwise analysis of the difference between groups (clinical scores), vs Model” value ([1]; therapeutic groups, 5 mpk, Day 30) was 0.0295. For the same compound, the “Pairwise analysis of the difference between groups (clinical scores), vs Model” value ([1]; therapeutic groups, 5 mpk, Day 32) was 0.0032, the “Pairwise analysis of the difference between groups (clinical scores), vs Model” value ([1]; therapeutic groups, 5 mpk, Day 35) was 0.0025 and the “Pairwise analysis of the difference between groups (clinical scores), vs Model” value ([1]; therapeutic groups, 5 mpk, Day 37) was 0.0024. For the same compound, the “Pairwise analysis of the difference between groups (clinical scores), vs Model” value ([1]; therapeutic groups, 5 mpk, Day 39) was 0.0019, the “Pairwise analysis of the difference between groups (clinical scores), vs Model” value ([1]; therapeutic groups, 5 mpk, Day 42) was 0.0044 and the “Pairwise analysis of the difference between groups (clinical scores), vs Model” value ([1]; therapeutic groups, 5 mpk, Day 44) was 0.0012. The “Pairwise analysis of the difference between groups (clinical scores), vs Model” value ([1]; therapeutic groups, 10 mpk, Day 28) was 0.0399, the “Pairwise analysis of the difference between groups (clinical scores), vs Model” value ([1]; therapeutic groups, 10 mpk, Day 30) was 0.0190 and the “Pairwise analysis of the difference between groups (clinical scores), vs Model” value ([1]; therapeutic groups, 10 mpk, Day 32) was 0.0080. For the same compound, the “Pairwise analysis of the difference between groups (clinical scores), vs Model” value ([1]; therapeutic groups, 10 mpk, Day 35) was 0.1008, the “Pairwise analysis of the difference between groups (clinical scores), vs Model” value ([1]; therapeutic groups, 10 mpk, Day 37) was 0.1336 and the “Pairwise analysis of the difference between groups (clinical scores), vs Model” value ([1]; therapeutic groups, 10 mpk, Day 39) was 0.1189. For the same compound, the “Pairwise analysis of the difference between groups (clinical scores), vs Model” value ([1]; therapeutic groups, 10 mpk, Day 42) was 0.0820, the “Pairwise analysis of the difference between groups (clinical scores), vs Model” value ([1]; therapeutic groups, 10 mpk, Day 44) was 0.0397 and the “Pairwise analysis of the difference between groups (clinical scores), S5i 5 mpk vs S5i 10 mpk” value ([1]; therapeutic groups, Day 28) was 0.4163. For the same compound, the “Pairwise analysis of the difference between groups (clinical scores), S5i 5 mpk vs S5i 10 mpk” value ([1]; therapeutic groups, Day 30) was 0.8721, the “Pairwise analysis of the difference between groups (clinical scores), S5i 5 mpk vs S5i 10 mpk” value ([1]; therapeutic groups, Day 32) was 0.4838 and the “Pairwise analysis of the difference between groups (clinical scores), S5i 5 mpk vs S5i 10 mpk” value ([1]; therapeutic groups, Day 35) was 0.0249. For the same compound, the “Pairwise analysis of the difference between groups (clinical scores), S5i 5 mpk vs S5i 10 mpk” value ([1]; therapeutic groups, Day 37) was 0.0183, the “Pairwise analysis of the difference between groups (clinical scores), S5i 5 mpk vs S5i 10 mpk” value ([1]; therapeutic groups, Day 39) was 0.0183 and the “Pairwise analysis of the difference between groups (clinical scores), S5i 5 mpk vs S5i 10 mpk” value ([1]; therapeutic groups, Day 42) was 0.0777. For the same compound, the “Pairwise analysis of the difference between groups (clinical scores), S5i 5 mpk vs S5i 10 mpk” value ([1]; therapeutic groups, Day 44) was 0.0842 and the “IFN-α-stimulated STAT3 tyrosine phosphorylation” value [2] was “not”.
